Reference: patent US7491819B1 (priority 2004, dated 2009)

Test system: HIV-1 303B
Test: microbe, parasite or virus in culture
Assay type: cell-based
Conditions: for EC50: Human immunodeficiency virus 1, MT2, 120 h; for Combination Indices at 50% HIV Inhibition (Confidence Interval) / Combination Indices at 75% HIV Inhibition (Confidence Interval) / Combination Indices at 90% HIV Inhibition (Confidence Interval): in combination with Example 19, 95% CI in parenthesis; for overall antiviral effect of the two-drug combination with Example 19 (in words): classification from combination indices and confidence intervals
Protocol: Virus and cell lines. The T-cell line, MT-2, was obtained through the AIDS Research and Reference Reagent Program. MT-2 cells were sub-cultured twice a week in RPMI 1640 medium supplemented with 10% fetal bovine serum, 2 mM L-glutamine, and 10 mM HEPES buffer pH 7.5. The HIV-1303B virus is a molecular clone derived from the NL4-3 strain of HIV-1 that was obtained from the NIH AIDS Research and Reference Reagent Program. For combinations with enfuvirtide, the NL36G virus was used. […] Virus stocks were made by transfecting 293T cells with a proviral DNA clone using LipofectAMINE PLUS (Invitrogen), according to the manufacturer's instructions. Three days post-transfection, virus was harvested and passaged once in MT-2 cells before titration in MT-2 cells.
Chemicals. Example 19, atazanavir, didanosine, stavudine, efavirenz, and enfuvirtide (T-20) were synthesized by Bristol-Myers Squibb using published or known reactions. […] Tenofovir was tested as tenofovir disopoxil fumarate. Zidovudine and zalcitabine were purchased from Sigma, and emtricitabine from Moravek Biochemicals.
Drug Susceptibility and Cytotoxicity Assays. For drug susceptibility assays, MT-2 cells were infected with HIV-1 303B (or NL36G), at an MOI of 0.001, and seeded into 96-well microtiter plates (2.5×10^5 cells/ml) containing serial dilutions of test compounds. […] Each drug ratio consisted of an array of 3-fold serial dilutions, and was performed with eight or more replicas on separate multi-well plates. HIV infected cells were incubated at 37° C. in 5% CO2, and on day five post-infection, the extent of virus replication was measured by determining cell viability using the CellTiter 96 Aqueous Non-Radioactive Cell Proliferation Assay (Promega). […] Cytotoxicity assays were performed in parallel with the combination experiments. Here, uninfected cells were exposed to the same drug combinations, and assayed after five days for cell viability using the MTS assay.
Analysis of Drug Combination Effects. For determination of combination index (CI) values, drugs were diluted in a fixed ratio and multiple ratios were analyzed. The drug serial dilutions spanned a range of concentrations near the EC50 value of each compound, so that equivalent antiviral activities could be compared. The normalized responses from each therapy are fit to the four-parameter logistic model with a common minimum and maximum across all therapies. Conceptually, this equation can be written as
In this equation, Fa stands for “fraction affected,” and represents the fraction of the viral load that has been inactivated. […] The EC50, represented by the Ci in the above equation, is the drug concentration that is expected to reduce the amount of virus by 50%, and the Bi are the parameters that reflects the slope of the concentration-response curve. For this assay, A is the bottom plateau common to all curves, D is the common top plateau, Bj is the “slope” parameter for the jth therapy, and Cj is the concentration that produces an effect equal to the average of A and D for the jth therapy. Therapies 1 and 2 correspond to mono therapies 1 and 2, respectively. Therapies 3, 4, and 5 correspond to the three combination therapies. EC50 values for each drug were determined from the single drug experiments, using the above equation. The equation was fit using a nonlinear regression routine (Proc Nlin) in PC SAS version 8.2 (SAS Institute Inc.).
To assess antiviral effects of different drug combination treatments, combination indices (CIs) were calculated according to Chou and Rideout. The combination index was computed as
In this equation [Dm]1 and [Dm]2 are the concentrations of drugs that would individually produce a specific level of effect, while [D]1 and [D]2 are the concentrations of drugs in combination that would produce the same level of effect.
Theoretically, additivity is implied if the CI is equal to one, synergy if the CI is less than one, and antagonism if the CI is greater than one.

[1] = EC50 ratio Example 19:comparator 1:1
[2] = EC50 ratio Example 19:comparator 1:2.5
[3] = EC50 ratio Example 19:comparator 2.5:1

Row | SMILES | EC50 [nM] | Combination Indices at 50% HIV Inhibition (Confidence Interval) [1] | Combination Indices at 75% HIV Inhibition (Confidence Interval) [1] | Combination Indices at 90% HIV Inhibition (Confidence Interval) [1] | Combination Indices at 50% HIV Inhibition (Confidence Interval) [2] | Combination Indices at 75% HIV Inhibition (Confidence Interval) [2] | Combination Indices at 90% HIV Inhibition (Confidence Interval) [2] | Combination Indices at 50% HIV Inhibition (Confidence Interval) [3] | Combination Indices at 75% HIV Inhibition (Confidence Interval) [3] | Combination Indices at 90% HIV Inhibition (Confidence Interval) [3] | overall antiviral effect of the two-drug combination with Example 19 (in words)
1 | CC(C)Nc1cccnc1N1CCN(C(=O)c2cc3cc(NS(C)(=O)=O)ccc3[nH]2)CC1 [Delavirdine, delavirdine] | 43 | 0.76 (0.64, 0.89) | 0.60 (0.47, 0.74) | 0.48 (0.31, 0.64) | 0.68 (0.58, 0.77) | 0.44 (0.32, 0.54) | 0.28 (0.17, 0.39) | 0.80 (0.68, 0.92) | 0.53 (0.42, 0.63) | 0.35 (0.25, 0.45) | 
2 | Nc1nc(NC2CC2)c2ncn([C@H]3C=C[C@@H](CO)C3)c2n1 [Abacavir, abacavir] | 1040 | 0.68 (0.59, 0.76) | 0.67 (0.56, 0.79) | 0.67 (0.49, 0.84) | 0.87 (0.77, 0.97) | 0.74 (0.63, 0.85) | 0.63 (0.50, 0.77) | 0.86 (0.76, 0.96) | 0.82 (0.68, 0.96) | 0.79 (0.58, 0.99) | synergistic
3 | O=c1[nH]cnc2c1ncn2[C@H]1CC[C@@H](CO)O1 [Didanosine, didanosine] | 10700 | 0.58 (0.53, 0.63) | 0.47 (0.35, 0.60) | 0.39 (0.22, 0.56) | 0.56 (0.51, 0.62) | 0.46 (0.40, 0.52) | 0.38 (0.32, 0.44) | 0.50 (0.46, 0.54) | 0.49 (0.44, 0.53) | 0.48 (0.42, 0.54) | synergistic
4 | CC(C)CN(C[C@@H](O)[C@H](Cc1ccccc1)NC(=O)O[C@H]1CCOC1)S(=O)(=O)c1ccc(N)cc1 [Amprenavir, amprenavir] | 62 | 0.83 (0.67, 1.00) | 0.84 (0.61, 1.08) | 0.89 (0.50, 1.23) | 0.84 (0.69, 0.99) | 0.77 (0.58, 0.96) | 0.75 (0.46, 1.04) | 0.90 (0.77, 1.04) | 0.62 (0.50, 0.74) | 0.44 (0.30, 0.57) | synergistic-additive effect
5 | CC(C)(C)NC(=O)[C@@H]1CN(Cc2cccnc2)CCN1C[C@@H](O)C[C@@H](Cc1ccccc1)C(=O)N[C@H]1c2ccccc2C[C@H]1O [Indinavir, indinavir] | 26 | 0.86 (0.80, 0.92) | 0.71 (0.62, 0.81) | 0.60 (0.46, 0.73) | 0.92 (0.84, 0.99) | 0.84 (0.76, 0.92) | 0.77 (0.66, 0.89) | 0.94 (0.87, 1.02) | 0.79 (0.71, 0.87) | 0.67 (0.57, 0.77) | additive relationship with Example 19 cannot be ruled out
6 | Cc1cn([C@H]2C=C[C@@H](CO)O2)c(=O)[nH]c1=O [Stavudine, stavudine] | 241 | 0.52 (0.43, 0.61) | 0.46 (0.36, 0.56) | 0.42 (0.26, 0.57) | 0.60 (0.48, 0.71) | 0.60 (0.46, 0.74) | 0.61 (0.40, 0.83) | 0.70 (0.57, 0.84) | 0.63 (0.48, 0.79) | 0.58 (0.37, 0.81) | synergistic
